Experimental data taken from patent US11993581B2, “Pyridazine compounds for inhibiting Nav1.8” (Lieber Institute, Inc., priority 2018, dated 2024).

Target: T1, human Nav1.8 (hNav1.8) ion channel (Homo sapiens, UniProt Q9Y5Y9)
T1 construct: expressed in transfected cells
Assay: Nav1.8 inhibition, estimated IC50 (Nav1.8 fluorescence, PatchXpress and/or IonFlux HT automated patch clamp assay)
Assay type: cell-based
Conditions: HEK293 cells stably expressing hNav1.8; determined using one or more of the described methods; read-out: Activity range (estimated IC50)
Protocol: The ability of pyridine carboxamide derivatives exemplified above to inhibit the Nav1.8 channel was determined using one or more of the methods described below.
HEK Nav1.8 β1/β2 Stably Expressing Cell Line
A HEK293 cell line stably expressing the human Nav1.8 (hNav1.8) ion channel with β1/β2 subunits was constructed. The cell line is suitable for IC50 determination in fluorescence and electrophysiological based assays. It is also suitable to conduct mechanism of action pharmacology studies in electrophysiological assays. HEK293 Nav1.8 cells are grown as adherent monolayers in DMEM/high glucose media, 10% fetal bovine serum, Na pyruvate (2 mM), Hepes (10 mM) with selection agents G418 (400 mg/L) and puromycin (0.5 mg/L) at 37 degrees C., 10% CO2.
Nav1.8 Fluorescence Inhibition Assay
Compounds were made up to or supplied as a 10-mM stock solution using DMSO as the vehicle. Concentration-response curves were generated using a Matrix multichannel pipettor. Compound source plates were made by diluting 10 mM compound stocks to create 500 μM (100×) solutions in DMSO in 96-well v-bottom plates. Compounds were then serially diluted in 100% DMSO to generate a 5 point, 4-fold dilution scheme dose response curve. 2 μL of the 100× dose response curves were then added to preincubation and stimulation assay plates. 100 μL of pre-incubation buffer and 200 μl of stimulation buffer was then added to the plates resulting in a final assay test concentration range of 5 μM to 0.02 μM with a final DMSO concentration of 1%.
On the day of assay, plates were washed to remove cell culture media using 2K EBSS buffer (135 mM NaCl, 2 mM KCl, 5 mM Glucose, 2 mM CaCl2, 1 mM MgCl2, 10 mM HEPES, pH 7.4). The Na-sensitive fluorescent dye, Asante Natrium Green-2 (ANG-2) was incubated for 60 min to allow equilibration and then washed with 2K EBSS. Plates were then transferred to a fluorescence plate reader (FLIPR™, Molecular Devices) for fluorescence measurement using an excitation wavelength of 490 nm and an emission wavelength of 565 nm. Compounds were pre-incubated for 5 min at final test concentration in the presence of ouabain (30 μM) to inhibit Na+ efflux through Na+/K+ exchanger. Following the pre-incubation phase, hNav1.8 channels were stimulated with 10 μM of the pyrethroid deltamethrin to prevent channel inactivation. The assay was run for 15 minutes with vehicle and 30 μM tetracaine serving as negative and positive controls, respectively. The peak change in fluorescence relative to negative and positive control wells was calculated and fit with a logistic equation to determine IC50.
PatchXpress Nav1.8 Inhibition Assay
HEK-Nav1.8 β1/β2 cells were recorded in whole cell patch-clamp using the PatchXpress automated patch clamp platforms (Molecular Devices). Cell suspensions were obtained by trypsinization of adherent monolayers, followed by gentle rocking for minimally 30 min. Compounds were prepared from 10 mM DMSO stocks.
Nav1.8 channel variants were evaluated using Protocol 1 in which cells were initially voltage clamped at a holding potential of −100 mV to maintain Nav1.8 in a closed resting state. After current amplitude becomes stable, the mid-point voltage of steady state inactivation was determined for each cell using a series of 5 sec conditioning steps to increasingly depolarized voltages (−100 to 0 mV) The holding potential was then reset to a voltage that produces ˜50% inactivation (Vhalf-set automatically via PatchXpress scripts) so that closed and inactivated channel inhibition could be assessed. Protocol 1 was run at a frequency of 0.1 Hz until current amplitude is steady (automatically determined by PatchXpress scripts). The effect of test reagent on Nav current amplitude was monitored using custom PatchXpress stability scripts which determines the timing of compound addition and washout.
Data were processed and analyzed using DataXpress 2.0 (Molecular Devices). […]

T1 sequence (Q9Y5Y9 whole entry): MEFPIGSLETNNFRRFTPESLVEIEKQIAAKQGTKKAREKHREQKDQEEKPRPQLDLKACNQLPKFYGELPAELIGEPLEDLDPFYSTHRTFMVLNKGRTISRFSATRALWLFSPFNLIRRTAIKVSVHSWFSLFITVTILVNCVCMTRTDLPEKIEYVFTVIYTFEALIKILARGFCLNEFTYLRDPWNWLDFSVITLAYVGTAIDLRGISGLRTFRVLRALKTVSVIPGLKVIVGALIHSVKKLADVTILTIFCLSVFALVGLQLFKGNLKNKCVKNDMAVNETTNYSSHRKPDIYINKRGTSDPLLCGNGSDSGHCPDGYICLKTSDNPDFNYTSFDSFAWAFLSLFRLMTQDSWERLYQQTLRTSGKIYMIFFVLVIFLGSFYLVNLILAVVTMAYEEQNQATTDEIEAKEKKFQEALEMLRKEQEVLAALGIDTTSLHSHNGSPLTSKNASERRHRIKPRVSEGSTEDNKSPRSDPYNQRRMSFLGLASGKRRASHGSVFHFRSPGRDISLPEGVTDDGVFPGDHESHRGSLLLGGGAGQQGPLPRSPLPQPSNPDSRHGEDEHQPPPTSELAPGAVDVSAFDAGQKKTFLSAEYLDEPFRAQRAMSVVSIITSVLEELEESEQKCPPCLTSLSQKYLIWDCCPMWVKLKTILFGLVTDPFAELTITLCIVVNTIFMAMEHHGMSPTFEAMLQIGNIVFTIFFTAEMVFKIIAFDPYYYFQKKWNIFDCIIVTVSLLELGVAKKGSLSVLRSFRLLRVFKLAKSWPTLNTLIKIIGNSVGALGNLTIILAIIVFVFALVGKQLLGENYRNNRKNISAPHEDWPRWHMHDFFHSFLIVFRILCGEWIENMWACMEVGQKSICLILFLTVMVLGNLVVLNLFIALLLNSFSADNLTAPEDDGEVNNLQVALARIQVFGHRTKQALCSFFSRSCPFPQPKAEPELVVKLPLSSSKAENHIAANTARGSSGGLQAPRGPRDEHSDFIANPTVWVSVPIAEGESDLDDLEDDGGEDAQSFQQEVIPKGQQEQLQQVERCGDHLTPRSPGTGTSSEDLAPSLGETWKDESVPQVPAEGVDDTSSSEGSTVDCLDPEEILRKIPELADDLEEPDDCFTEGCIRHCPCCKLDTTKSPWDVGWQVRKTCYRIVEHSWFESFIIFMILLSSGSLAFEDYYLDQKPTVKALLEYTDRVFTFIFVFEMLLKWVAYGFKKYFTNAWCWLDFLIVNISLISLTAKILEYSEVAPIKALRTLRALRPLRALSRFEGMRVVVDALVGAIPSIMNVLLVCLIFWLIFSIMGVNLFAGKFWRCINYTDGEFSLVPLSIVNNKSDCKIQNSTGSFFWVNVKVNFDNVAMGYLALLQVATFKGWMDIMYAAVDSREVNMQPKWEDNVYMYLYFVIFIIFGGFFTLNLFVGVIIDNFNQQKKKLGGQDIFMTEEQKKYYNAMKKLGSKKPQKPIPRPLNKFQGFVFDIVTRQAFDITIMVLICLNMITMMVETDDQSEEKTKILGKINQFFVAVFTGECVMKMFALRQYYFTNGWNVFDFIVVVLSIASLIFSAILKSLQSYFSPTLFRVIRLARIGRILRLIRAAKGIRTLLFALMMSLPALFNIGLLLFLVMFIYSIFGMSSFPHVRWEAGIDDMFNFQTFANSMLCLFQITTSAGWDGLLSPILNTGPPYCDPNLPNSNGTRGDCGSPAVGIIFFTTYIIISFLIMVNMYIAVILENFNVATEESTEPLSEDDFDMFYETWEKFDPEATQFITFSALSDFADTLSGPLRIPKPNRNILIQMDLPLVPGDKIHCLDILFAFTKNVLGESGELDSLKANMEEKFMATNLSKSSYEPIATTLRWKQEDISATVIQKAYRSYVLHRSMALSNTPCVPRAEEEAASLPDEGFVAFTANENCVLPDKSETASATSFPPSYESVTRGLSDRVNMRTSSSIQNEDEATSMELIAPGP
T1 sequence (Q07699 19-218 partner): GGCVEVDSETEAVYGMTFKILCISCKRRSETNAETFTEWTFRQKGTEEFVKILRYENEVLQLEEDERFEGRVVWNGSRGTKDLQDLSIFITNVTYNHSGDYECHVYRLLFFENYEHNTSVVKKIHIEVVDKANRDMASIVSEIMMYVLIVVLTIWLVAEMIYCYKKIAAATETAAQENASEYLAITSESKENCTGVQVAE

Question: With “6-[4-(difluoromethoxy)phenyl]-N-[(2-morpholinophenyl)methyl]pyridazine-4-carboxamide [Example 56]” as the compound, how does the IC50 read?
Answer: < 500 nM

Question: How did the IC50 turn out when O=C(NCc1cccnc1N1CCOCC1)c1cnnc(-c2ccc(OCC3CC3)c(Cl)c2)c1 [Example 1, 6-(3-chloro-4-(cyclopropylmethoxy)phenyl)-N-((2-morpholinopyridin-3-yl)methyl)pyridazine-4-carboxamide] was run?
Answer: < 500 nM

Question: With O=C(NCc1cccnc1N1CCOCC1)c1cnnc(-c2ccc(Cl)nc2)c1 [Example 2, 6-(6-chloro-3-pyridyl)-N-[(2-morpholino-3-pyridyl)methyl]pyridazine-4-carboxamide] as the compound, how does the IC50 read?
Answer: > 1000 nM

Question: For O=C(NCc1cccnc1N1CCOCC1)c1cnnc(-c2cccc(Cl)c2)c1 [Example 3, 6-(3-chlorophenyl)-N-[(2-morpholino-3-pyridyl)methyl]pyridazine-4-carboxamide], which IC50 is on record?
Answer: 500 to 1000 nM

Question: How did the IC50 turn out when Cc1cc(Cl)ccc1-c1cc(C(=O)NCc2cccnc2N2CCOCC2)cnn1 [Example 4, 6-(4-chloro-2-methyl-phenyl)-N-[(2-morpholino-3-pyridyl)methyl]pyridazine-4-carboxamide] was run?
Answer: < 500 nM

Question: CC(C)COc1ccc(-c2cc(C(=O)NCc3cccnc3N3CCOCC3)cnn2)cc1 [Example 5, 6-(4-isobutoxyphenyl)-N-[(2-morpholino-3-pyridyl)methyl]pyridazine-4-carboxamide] was tested. Which IC50 did it give?
Answer: < 500 nM

Question: For O=C(NCc1cccnc1N1CCOCC1)c1cnnc(-c2ccc(OC(F)(F)F)cc2)c1 [Example 6, N-[(2-morpholino-3-pyridyl)methyl]-6-[4-(trifluoromethoxy)phenyl]pyridazine-4-carboxamide], which IC50 is on record?
Answer: < 500 nM

Question: Which IC50 does the source give for O=C(NCc1cccnc1N1CCOCC1)c1cnnc(-c2ccc(OCC(F)(F)F)cc2)c1 [Example 7, N-[(2-morpholino-3-pyridyl)methyl]-6-[4-(2,2,2-trifluoroethoxy)phenyl]pyridazine-4-carboxamide] here?
Answer: < 500 nM

Question: O=C(NCc1cccnc1N1CCOCC1)c1cnnc(-c2ccc(OCC3CC3)cc2)c1 [Example 8, 6-[4-(cyclopropylmethoxy)phenyl]-N-[(2-morpholino-3-pyridyl)methyl]pyridazine-4-carboxamide] was tested. Which IC50 did it give?
Answer: < 500 nM

Question: With CCOc1ccc(-c2cc(C(=O)NCc3cccnc3N3CCOCC3)cnn2)cc1Cl [Example 9, 6-(3-chloro-4-ethoxy-phenyl)-N-[(2-morpholino-3-pyridyl)methyl]pyridazine-4-carboxamide] as the compound, how does the IC50 read?
Answer: < 500 nM

Question: CCCOc1ccc(-c2cc(C(=O)NCc3cccnc3N3CCOCC3)cnn2)cc1Cl [Example 10, 6-(3-chloro-4-propoxy-phenyl)-N-[(2-morpholino-3-pyridyl)methyl]pyridazine-4-carboxamide] was tested. Which IC50 did it give?
Answer: < 500 nM

Question: Which IC50 does the source give for CC(C)Oc1ccc(-c2cc(C(=O)NCc3cccnc3N3CCOCC3)cnn2)cc1Cl [Example 11, 6-(3-chloro-4-isopropoxy-phenyl)-N-[(2-morpholino-3-pyridyl)methyl]pyridazine-4-carboxamide] here?
Answer: < 500 nM

Question: Which IC50 does the source give for CCOc1ccc(-c2cc(C(=O)NCc3cccnc3N3CCOCC3)cnn2)cc1F [Example 12, 6-(4-ethoxy-3-fluoro-phenyl)-N-[(2-morpholino-3-pyridyl)methyl]pyridazine-4-carboxamide] here?
Answer: < 500 nM

Question: For CCCOc1ccc(-c2cc(C(=O)NCc3cccnc3N3CCOCC3)cnn2)cc1F [Example 13, 6-(3-fluoro-4-propoxy-phenyl)-N-[(2-morpholino-3-pyridyl)methyl]pyridazine-4-carboxamide], which IC50 is on record?
Answer: < 500 nM

Question: Which IC50 does the source give for CC(C)Oc1ccc(-c2cc(C(=O)NCc3cccnc3N3CCOCC3)cnn2)cc1F [Example 14, 6-(3-fluoro-4-isopropoxy-phenyl)-N-[(2-morpholino-3-pyridyl)methyl]pyridazine-4-carboxamide] here?
Answer: < 500 nM

Question: For O=C(NCc1cccnc1N1CCOCC1)c1cnnc(-c2ccc(OC3CC3)cc2)c1 [Example 15, 6-[4-(cyclopropoxy)phenyl]-N-[(2-morpholino-3-pyridyl)methyl]pyridazine-4-carboxamide], which IC50 is on record?
Answer: < 500 nM

Question: Which IC50 does the source give for O=C(NCc1cccnc1N1CCOCC1)c1cnnc(-c2ccc(OCC3CC3)nc2)c1 [Example 16, 6-[6-(cyclopropylmethoxy)-3-pyridyl]-N-[(2-morpholino-3-pyridyl)methyl]pyridazine-4-carboxamide] here?
Answer: < 500 nM

Question: How did the IC50 turn out when O=C(NCc1cccnc1N1CCOCC1)c1cnnc(-c2ccc(Cl)cc2)c1 [Example 17, 6-(4-chlorophenyl)-N-[(2-morpholino-3-pyridyl)methyl]pyridazine-4-carboxamide] was run?
Answer: > 1000 nM

Question: Which IC50 does the source give for O=C(NCc1cccnc1N1CC2(COC2)C1)c1cnnc(-c2ccc(OCC3CC3)c(Cl)c2)c1 [Example 19, 6-[3-chloro-4-(cyclopropylmethoxy)phenyl]-N-[[2-(2-oxa-6-azaspiro[3.3]heptan-6-yl)-3-pyridyl]methyl]pyridazine-4-carboxamide] here?
Answer: < 500 nM

Question: Which IC50 does the source give for O=C(NCc1cccnc1OCC(F)(F)F)c1cnnc(-c2ccc(OCC3CC3)c(Cl)c2)c1 [Example 20, 6-[3-chloro-4-(cyclopropylmethoxy)phenyl]-N-[[2-(2,2,2-trifluoroethoxy)-3-pyridyl]methyl]pyridazine-4-carboxamide] here?
Answer: < 500 nM

Question: O=C(NCc1cccnc1N1CCCOCC1)c1cnnc(-c2ccc(OCC3CC3)c(Cl)c2)c1 [Example 21, 6-[3-chloro-4-(cyclopropylmethoxy)phenyl]-N-[[2-(1,4-oxazepan-4-yl)-3-pyridyl]methyl]pyridazine-4-carboxamide] was tested. Which IC50 did it give?
Answer: < 500 nM

Question: Which IC50 does the source give for CC1CN(c2ncccc2CNC(=O)c2cnnc(-c3ccc(OCC4CC4)c(Cl)c3)c2)CCO1 (stereo not drawn) [Example 22, 6-[3-chloro-4-(cyclopropylmethoxy)phenyl]-N-[[2-(2-methylmorpholin-4-yl)-3-pyridyl]methyl]pyridazine-4-carboxamide] here?
Answer: < 500 nM

Question: For CC1COCCN1c1ncccc1CNC(=O)c1cnnc(-c2ccc(OCC3CC3)c(Cl)c2)c1 (stereo not drawn) [Example 23, 6-[3-chloro-4-(cyclopropylmethoxy)phenyl]-N-[[2-(3-methylmorpholin-4-yl)-3-pyridyl]methyl]pyridazine-4-carboxamide], which IC50 is on record?
Answer: < 500 nM

Question: Cc1ccc(CNC(=O)c2cnnc(-c3ccc(OCC4CC4)c(Cl)c3)c2)c(N2CCOCC2)n1 [Example 24, 6-[3-chloro-4-(cyclopropylmethoxy)phenyl]-N-[(6-methyl-2-morpholino-3-pyridyl)methyl]pyridazine-4-carboxamide] was tested. Which IC50 did it give?
Answer: < 500 nM

Question: Cc1ccnc(N2CCOCC2)c1CNC(=O)c1cnnc(-c2ccc(OCC3CC3)c(Cl)c2)c1 [Example 25, 6-[3-chloro-4-(cyclopropylmethoxy)phenyl]-N-[(4-methyl-2-morpholino-3-pyridyl)methyl]pyridazine-4-carboxamide] was tested. Which IC50 did it give?
Answer: < 500 nM

Question: Cc1cnc(N2CCOCC2)c(CNC(=O)c2cnnc(-c3ccc(OCC4CC4)c(Cl)c3)c2)c1 [Example 26, 6-[3-chloro-4-(cyclopropylmethoxy)phenyl]-N-[(5-methyl-2-morpholino-3-pyridyl)methyl]pyridazine-4-carboxamide] was tested. Which IC50 did it give?
Answer: > 1000 nM

Question: With O=C(NCc1ccccc1N1CCOCC1)c1cnnc(-c2ccc(OCC3CC3)c(Cl)c2)c1 [Example 27, 6-[3-chloro-4-(cyclopropylmethoxy)phenyl]-N-[(2-morpholinophenyl)methyl]pyridazine-4-carboxamide] as the compound, how does the IC50 read?
Answer: < 500 nM
